Patent publication US10703764B2, “Benzopiperazine compositions as BET bromodomain inhibitors” (FORMA Therapeutics, Inc., priority 2013, dated 2020)
Where two headings read alike, the source gives them in different places.

How the values were obtained:
BRD4 BD1 = molecular target: T1, BRD4 BD1 (Homo sapiens, UniProt O60885); test: AlphaScreen binding assay, BRD4 Bromodomain 1
T1 construct: made in house
Procedure, shortened: (§1)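 Compound dilution series were mixed with His-tagged BRD4 bromodomain and biotinylated tetra-acetylated H4 (1-21) peptide at pH 7.3 (BD1 and peptide at 50 nM, BD2 and peptide at 100 nM). Donor and acceptor beads were then added, and plates were equilibrated at least 1 h before reading. IC50 values were fitted with a four-parameter logistic model.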

BRD4 BD2 = molecular target: T2, BRD4 BD2 (Homo sapiens, UniProt O60885); test: AlphaScreen binding assay, BRD4 Bromodomain 2
T2 construct: made in house
Procedure, shortened: as §1

MV4-11 cells = test: Oncology cell growth assay (3-day proliferation, CellTiter-Glo); format: cell-based; details: Homo sapiens, AML cell line MV4-11, 72 hours, compounds grouped by IC50 range, read-out: MV4-11 IC50 (inhibition of proliferation, gIC50)
Procedure, shortened: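 Compounds were serially diluted 3-fold in DMSO, giving final well concentrations from 10 down to 0.0045 μM. MV4-11 cells were then seeded at 3000 cells/well in RPMI 1640 with 10% FBS and incubated 72 hours. CellTiter-Glo signal was measured and gIC50 obtained by four-parameter logistic regression.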

Compound	IC50 (BRD4 BD1)	IC50 (BRD4 BD2)	IC50 (MV4-11 cells; MV4-11, 72 h)	IC50 (MV4-11 cells)
CC(=O)N1c2ccc(-c3cnn(C4COC4)c3)cc2N(C(=O)OC2CC3CC3C2)C[C@@H]1C (stereo partly drawn) [Example I-74, (3S)-bicyclo[3.1.0]hexan-3-yl 4-acetyl-3-methyl-7-(1-(oxetan-3-yl)-1H-pyrazol-4-yl)-3,4-dihydroquinoxaline-1(2H)-carboxylate]	< 100 nM	< 50 nM	100 to 500 nM	
CC(=O)N1c2ccc(-c3cnn(C4COC4)c3)cc2N(C(=O)OCC(C)(C)F)C[C@@H]1C [Example I-77, (S)-2-fluoro-2-methylpropyl 4-acetyl-3-methyl-7-(1-(oxetan-3-yl)-1H-pyrazol-4-yl)-3,4-dihydroquinoxaline-1(2H)-carboxylate]	< 100 nM	< 50 nM	100 to 500 nM	
CC(=O)N1c2ccc(-c3cnn(C4CC4)c3)cc2N(C(=O)OCCC(F)(F)F)C[C@@H]1C [Example I-78, (S)-3,3,3-trifluoropropyl 4-acetyl-7-(1-cyclopropyl-1H-pyrazol-4-yl)-3-methyl-3,4-dihydroquinoxaline-1(2H)-carboxylate]	100 to 1000 nM	50 to 500 nM	100 to 500 nM	
CC(=O)N1c2ccc(-c3cnn(C4CC4)c3)cc2N(C(=O)OCC(F)(F)F)C[C@@H]1C [Example I-79, (S)-2,2,2-trifluoroethyl 4-acetyl-7-(1-cyclopropyl-1H-pyrazol-4-yl)-3-methyl-3,4-dihydroquinoxaline-1(2H)-carboxylate]	100 to 1000 nM	50 to 500 nM	100 to 500 nM	
CC(=O)N1c2ccc(-c3cnn(C4CC4)c3)cc2N(C(=O)OC(CF)CF)C[C@@H]1C [Example I-80, (S)-1,3-difluoropropan-2-yl 4-acetyl-7-(1-cyclopropyl-1H-pyrazol-4-yl)-3-methyl-3,4-dihydroquinoxaline-1(2H)-carboxylate]	100 to 1000 nM	50 to 500 nM	100 to 500 nM	
CC(=O)N1c2ccc(-c3cnn(CCO)c3)cc2N(C(=O)OCCC(F)(F)F)C[C@@H]1C [Example I-81, (S)-3,3,3-trifluoropropyl 4-acetyl-7-(1-(2-hydroxyethyl)-1H-pyrazol-4-yl)-3-methyl-3,4-dihydroquinoxaline-1(2H)-carboxylate]	1000 to 10000 nM	> 500 nM	100 to 500 nM	
CC(=O)N1c2ccc(-c3cnn(CCO)c3)cc2N(C(=O)OCC(F)(F)F)C[C@@H]1C [Example I-82, (S)-2,2,2-trifluoroethyl 4-acetyl-7-(1-(2-hydroxyethyl)-1H-pyrazol-4-yl)-3-methyl-3,4-dihydroquinoxaline-1(2H)-carboxylate]	> 10000 nM	> 500 nM	> 500 nM	
CC(=O)N1c2ccc(-c3cnn(CCO)c3)cc2N(C(=O)OC(CF)CF)C[C@@H]1C [Example I-83, (S)-1,3-difluoropropan-2-yl 4-acetyl-7-(1-(2-hydroxyethyl)-1H-pyrazol-4-yl)-3-methyl-3,4-dihydroquinoxaline-1 (2H)-carboxylate]	100 to 1000 nM	50 to 500 nM	> 500 nM	
CC(=O)N1c2ccc(-c3cnn(C4COC4)c3)cc2N(C(=O)Oc2ccc(F)cc2)C[C@@H]1C [Example I-85, 4-fluorophenyl (S)-4-acetyl-3-methyl-7-(1-(oxetan-3-yl)-1H-pyrazol-4-yl)-3,4-dihydroquinoxaline-1(2H)-carboxylate]	< 100 nM	< 50 nM	100 to 500 nM	
CC(=O)N1c2ccc(-c3cnn(C4COC4)c3)cc2N(C(=O)OC2CCCCC2)C[C@@H]1C [Example I-86, (S)-cyclohexyl 4-acetyl-3-methyl-7-(1-(oxetan-3-yl)-1H-pyrazol-4-yl)-3,4-dihydroquinoxaline-1(2H)-carboxylate]	100 to 1000 nM	50 to 500 nM	< 100 nM	
COc1ccc(OC(=O)N2C[C@H](C)N(C(C)=O)c3ccc(-c4cnn(C5COC5)c4)cc32)cc1 [Example I-87, (S)-4-methoxyphenyl 4-acetyl-3-methyl-7-(1-(oxetan-3-yl)-1H-pyrazol-4-yl)-3,4-dihydroquinoxaline-1(2H)-carboxylate]	< 100 nM	< 50 nM	< 100 nM	
CC(=O)N1c2ccc(-c3cnn(C4COC4)c3)cc2N(C(=O)Oc2ccccc2)C[C@@H]1C [Example I-88, (S)-phenyl 4-acetyl-3-methyl-7-(1-(oxetan-3-yl)-1H-pyrazol-4-yl)-3,4-dihydroquinoxaline-1(2H)-carboxylate]	100 to 1000 nM	< 50 nM	< 100 nM	
CC(=O)N1c2ccc(-c3cnn(C4COC4)c3)cc2N(C(=O)Oc2cccnc2)C[C@@H]1C [Example I-89, (S)-pyridin-3-yl 4-acetyl-3-methyl-7-(1-(oxetan-3-yl)-1H-pyrazol-4-yl)-3,4-dihydroquinoxaline-1(2H)-carboxylate]	< 100 nM	< 50 nM	100 to 500 nM	
CC(=O)N1c2ccc(-c3cnn(C4COC4)c3)cc2N(C(=O)Oc2ccncc2)C[C@@H]1C [Example I-90, (S)-pyridin-4-yl 4-acetyl-3-methyl-7-(1-(oxetan-3-yl)-1H-pyrazol-4-yl)-3,4-dihydroquinoxaline-1(2H)-carboxylate]	< 100 nM	< 50 nM	100 to 500 nM	
CC(=O)N1c2ccc(-c3cnn(C4COC4)c3)cc2N(C(=O)Oc2ccccn2)C[C@@H]1C [Example I-91, (S)-pyridin-2-yl 4-acetyl-3-methyl-7-(1-(oxetan-3-yl)-1H-pyrazol-4-yl)-3,4-dihydroquinoxaline-1(2H)-carboxylate]	< 100 nM	< 50 nM	100 to 500 nM	
CC(=O)N1c2ccc(-c3cnn(C4CC4)c3)cc2N(c2n[nH]c3ccccc23)C[C@@H]1C [Example I-93, (S)-1-(6-(1-cyclopropyl-1H-pyrazol-4-yl)-4-(1H-indazol-3-yl)-2-methyl-3,4-dihydroquinoxalin-1 (2H)-yl)ethan-1-one]	100 to 1000 nM	50 to 500 nM	< 100 nM	
CC(=O)N1c2ccc(-c3ccc(S(C)(=O)=O)cc3)cc2N(c2n[nH]c3ccccc23)C[C@@H]1C [Example I-94, (S)-1-(4-(1H-indazol-3-yl)-2-methyl-6-(4-(methylsulfonyl)phenyl)-3,4-dihydroquinoxalin-1 (2H)-yl)ethan-1-one]	100 to 1000 nM	50 to 500 nM	< 100 nM	
CC(=O)N1c2ccc(-c3cnn(C4CC4)c3)cc2N(c2noc3ccccc23)C[C@@H]1C [Example I-95, (S)-1-(4-(benzo[d]isoxazol-3-yl)-6-(1-cyclopropyl-1H-pyrazol-4-yl)-2-methyl-3,4-dihydroquinoxalin-1(2H)-yl)ethanone]	< 100 nM	< 50 nM		100 to 500 nM
CC(=O)N1c2ccc(-c3cnn(C4CS(=O)(=O)C4)c3)cc2N(C(=O)OC2CCC2)C[C@@H]1C [Example I-98, cyclobutyl (3S)-4-acetyl-7-[1-(1,1-dioxo-1λ^6-thietan-3-yl)-1H-pyrazol-4-yl]-3-methyl-1,2,3,4-tetrahydroquinoxaline-1-carboxylate]	100 to 1000 nM	50 to 500 nM	100 to 500 nM	
CC(=O)N1c2ccc(-c3ccc(C(=O)N4CCNCC4)cc3)cc2N(C(=O)Oc2ccccc2)C[C@@H]1C [Example I-99, phenyl (S)-4-acetyl-3-methyl-7-(4-(piperazine-1-carbonyl)phenyl)-3,4-dihydroquinoxaline-1(2H)-carboxylate]	< 100 nM	< 50 nM		< 100 nM
CC(=O)N1c2ccc(-c3cnn(C4COC4)c3)cc2N(C(=O)C2(C)CC2)C[C@@H]1C [Example I-114, (S)-1-(2-methyl-4-(1-methylcyclopropanecarbonyl)-6-(1-(oxetan-3-yl)-1H-pyrazol-4-yl)-3,4-dihydroquinoxalin-1(2H)-yl)ethanone]	> 10000 nM	50 to 500 nM	> 500 nM	
CC(=O)N1c2ccc(-c3cnn(Cc4cnccn4)c3)cc2N(C(=O)OC(C)C)C[C@@H]1C [Example I-116, (S)-isopropyl 4-acetyl-3-methyl-7-(1-(pyrazin-2-ylmethyl)-1H-pyrazol-4-yl)-3,4-dihydroquinoxaline-1(2H)-carboxylate]	100 to 1000 nM	50 to 500 nM	100 to 500 nM	
CC(=O)N1c2ccc(-c3cnn(Cc4ccncc4)c3)cc2N(C(=O)OC(C)C)C[C@@H]1C [Example I-117, (S)-isopropyl 4-acetyl-3-methyl-7-(1-(pyridin-4-ylmethyl)-1H-pyrazol-4-yl)-3,4-dihydroquinoxaline-1(2H)-carboxylate]	100 to 1000 nM	50 to 500 nM	100 to 500 nM	
CC(=O)N1c2ccc(-c3cnn(Cc4cccnc4)c3)cc2N(C(=O)OC(C)C)C[C@@H]1C [Example I-119, (S)-isopropyl 4-acetyl-3-methyl-7-(1-(pyridin-3-ylmethyl)-1H-pyrazol-4-yl)-3,4-dihydroquinoxaline-1(2H)-carboxylate]	100 to 1000 nM	< 50 nM	100 to 500 nM	
CC(=O)N1c2ccc(-c3cnn(Cc4ccccn4)c3)cc2N(C(=O)OC(C)C)C[C@@H]1C [Example I-120, (S)-isopropyl 4-acetyl-3-methyl-7-(1-(pyridin-2-ylmethyl)-1H-pyrazol-4-yl)-3,4-dihydroquinoxaline-1(2H)-carboxylate]	100 to 1000 nM	< 50 nM	100 to 500 nM	
